A compilation of properties of binary mixtures (doi:10.1039/c6ra15476j)

Experiment: xn = mol fraction of the nth substance listed
Conditions: 100 kPa

CC(=O)c1ccccc1 + CC[n+]1ccn(C)c1.F[B-](F)(F)F
Conditions | speed of sound, 293.15 K [m/s] | speed of sound, 303.15 K [m/s] | speed of sound, 313.15 K [m/s] | speed of sound, 323.15 K [m/s] | speed of sound, 333.15 K [m/s] | viscosity, 293.15 K [mPa·s] | viscosity, 303.15 K [mPa·s] | viscosity, 313.15 K [mPa·s] | viscosity, 323.15 K [mPa·s] | viscosity, 333.15 K [mPa·s]
x1 = 0.0416 | 1640 | 1608 | 1581 | 1555 | – | 32.1 | 21.2 | 15.4 | 11.6 | –
x1 = 0.094 | 1638 | – | 1572 | – | – | 25.5 | – | 12.3 | – | –
x1 = 0.195 | 1628 | 1591 | 1560 | 1530 | 1502 | 21.7 | 14.3 | 10.9 | 8.1 | 7.2
x1 = 0.2999 | – | 1581 | 1550 | 1519 | 1490 | – | 12.9 | 9.5 | 7.3 | 5.8
x1 = 0.4003 | – | 1571 | 1538 | – | – | – | 11 | 8.1 | – | –
x1 = 0.4989 | 1598 | – | 1527 | – | 1462 | 12.3 | – | 6 | – | 3.49
x1 = 0.5979 | 1583 | 1546 | 1511 | 1477 | 1442 | 8.7 | 6.5 | 5.2 | 4.14 | 3.39
x1 = 0.7005 | 1564 | 1528 | 1491 | 1457 | 1422 | 6.8 | 4.97 | 3.84 | 3.1 | 2.58
x1 = 0.8007 | 1543 | 1507 | 1472 | 1437 | 1400 | 4.74 | 3.61 | 3.09 | 2.36 | 2
x1 = 0.8918 | 1522 | 1485 | – | 1413 | – | 3.2 | 2.56 | – | 1.76 | –
x1 = 0.9498 | 1509 | 1471 | – | 1398 | – | 2.45 | 2.03 | – | 1.42 | –
x1 = 1 | 1497 | 1460 | 1423 | 1387 | – | 1.91 | 1.65 | 1.37 | 1.17 | –

CC(=O)c1ccccc1 + CCOS(=O)(=O)[O-].CC[n+]1ccn(C)c1
Conditions | speed of sound, 293.15 K [m/s] | speed of sound, 303.15 K [m/s] | speed of sound, 313.15 K [m/s] | speed of sound, 323.15 K [m/s] | speed of sound, 333.15 K [m/s] | viscosity, 293.15 K [mPa·s] | viscosity, 303.15 K [mPa·s] | viscosity, 313.15 K [mPa·s] | viscosity, 323.15 K [mPa·s] | viscosity, 333.15 K [mPa·s]
x1 = 0.0505 | 1691 | 1663 | 1637 | 1611 | – | 68 | 44 | 29 | 20.6 | –
x1 = 0.0997 | 1684 | 1656 | 1628 | 1601 | – | 56 | 35 | 23.9 | 17.1 | –
x1 = 0.2 | 1669 | – | 1610 | 1581 | 1521 | 40 | – | 18 | 13.1 | 11.9
x1 = 0.3008 | 1652 | 1621 | 1591 | – | 1503 | 30.2 | 21.3 | 14.5 | – | 9.6
x1 = 0.4002 | 1634 | – | 1571 | 1540 | 1485 | 22.6 | – | 11.9 | 9.3 | 8.3
x1 = 0.5006 | 1615 | 1583 | 1550 | 1518 | – | 14.9 | 11.8 | 9.8 | 8 | 6.8
x1 = 0.5999 | 1596 | 1562 | 1529 | – | 1448 | 10.1 | 8.4 | 7.2 | – | 4.9
x1 = 0.6921 | 1577 | 1542 | – | 1473 | 1428 | 6.9 | 6.6 | – | 3.4 | 3.6
x1 = 0.7973 | – | – | 1481 | 1446 | 1404 | – | – | 4.6 | 2.19 | 1.86
x1 = 0.8999 | 1526 | 1489 | – | – | 1379 | 3.7 | 2.88 | – | – | 1.66
x1 = 0.9502 | 1511 | – | – | 1402 | 1365 | 3.04 | – | – | 1.68 | 1.46
x1 = 1 | 1497 | – | – | – | 1352 | 1.91 | – | – | – | 1.02

CC[n+]1ccn(C)c1.F[B-](F)(F)F + CC(=O)c1ccccc1
x2 = 0
Conditions | speed of sound [m/s] | viscosity [mPa·s]
303.15 K | 1618 | 28.2
313.15 K | 1595 | 20
323.15 K | 1572 | 14.9
333.15 K | 1550 | 11.5

CCOS(=O)(=O)[O-].CC[n+]1ccn(C)c1 + CC(=O)c1ccccc1
x2 = 0
Conditions | speed of sound [m/s] | viscosity [mPa·s]
293.15 K | 1695 | 98
303.15 K | 1670 | 60
323.15 K | 1623 | 27.9

CCCC[n+]1ccn(C)c1.F[P-](F)(F)(F)(F)F + CC(=O)c1ccccc1
x2 = 0
Conditions | viscosity [mPa·s]
293.15 K | 293
303.15 K | 162
323.15 K | 62
333.15 K | 42.3

CC(=O)c1ccccc1 + CCCC[n+]1ccn(C)c1.F[P-](F)(F)(F)(F)F
viscosity [mPa·s]
Conditions | 293.15 K | 303.15 K | 313.15 K | 323.15 K | 333.15 K
x1 = 0.0504 | 176 | 89 | 62 | 41 | 27.6
x1 = 0.0913 | 129 | 68 | 45.8 | – | –
x1 = 0.1983 | 88 | 48.5 | 35 | 26.5 | 18.6
x1 = 0.2999 | 81 | – | 32.3 | 23.2 | –
x1 = 0.3908 | 73 | 40.9 | 28.3 | – | 14.2
x1 = 0.4973 | 60 | 32.4 | – | 15.2 | 10.2
x1 = 0.5999 | – | 22.9 | – | 11.6 | 9.3
x1 = 0.697 | 35.6 | 18.5 | 12.3 | – | 8.3
x1 = 0.7999 | 28.2 | 14.3 | 8 | – | 4.67
x1 = 0.9002 | 16.2 | 7.7 | 5.6 | 4.34 | –
x1 = 0.95 | 8.4 | 4.64 | 3.57 | – | 1.62
x1 = 1 | 1.91 | 1.65 | 1.37 | 1.17 | –
